In paper PMC5976665, “Identification of a peptide for folate receptor alpha by phage display and its tumor targeting activity in ovary cancer xenograft” (Scientific Reports, 2018):
Residues, ends and D or L forms follow the SMILES beside them. No end group written: not given here. *: point of attachment. FITC = O=C1OC2(c3ccc(O)cc3Oc3cc(O)ccc32)c2ccc(NC(=S)*)cc21

Legend:
SKOV3 cells [1] = test: Cell-based ELISA of phage clones on SKOV3 cells; set-up: species or system human; details: FRα positive cells, fixed; 10^10 phages per well, 37 °C 2 h, HRP anti-M13
Text: (§1) Phage clones with high ELISA value were further tested by cell-based ELISA. SKOV3 (human epithelial ovarian cancer cell) is a FRα expressing cell line and was used to evaluate the binding of selected phage clones to natural FRα protein on cell surface. HEPG2 (Human Liver Carcinoma Cell) without FRα expressing was used as a negative control. Both cell lines were purchased from Shanghai Cell Biology Institutes (Academia Sinica, Shanghai, China) and maintained in RPMI 1640 Medium with 10% fetal bovine serum and antibiotics. The presence or absence of FRα expression of the two cell lines were confirmed by flow cytometry described in 2.4. The cells were cultured in 96-well plate to 80% confluence and fixed with 4% paraformaldehyde. After blocking with 3% BSA for 2 h, 10^10 individual phages were added to each well and incubated at 37 °C for 2 h. Then the plate was washed with PBST for three times and cell-bound phage was detected with HRP-conjugated anti-M13 IgG (1:10000) as described in phage ELISA.

HepG2 cells = test: Cell-based ELISA of phage clones on HepG2 cells; set-up: species or system human; details: FRα negative cells, fixed; 10^10 phages per well, 37 °C 2 h, HRP anti-M13
Text: as §1

SKOV3 cells [2] = test: Flow cytometry of phage clone binding to SKOV3 cells; type: cell-based, human; details: 4 °C 1 h, mouse anti-M13 and FITC goat anti-mouse antibody
Protocol: SKOV3 cells were collected and suspended in 2% FCS-PBS medium at 1 × 10^6 cells/mL. Purified phage clones were incubated individually with the cells at 4 °C for 1 h. The cells were washed twice with 2% FCS-PBS by 5 min centrifugation at 300 g. Mouse anti-M13 antibody was diluted with 2% FCS-PBS (1:400) and incubated with cells for 30 min at 4 °C. After washing, the cells were stained for 30 min at 4 °C with FITC conjugated goat anti-mouse antibody (Fcmacs, Inc., Nanjing). Cells were analyzed as described above.

SKOV3 implanted tumor = test: In vivo homing of phage clones in SKOV3 xenografts; set-up: species or system Balb/c nude mice; details: 2 × 10^11 phages i.v., circulated 15 min, phage titration per gram of tissue, n = 3
Protocol: Female Balb/c nude mice aged 6–8 weeks were purchased from the Yangzhou University Animal Center. All the animal studies were performed in compliance with the National Institutes of Health Guide for the Care and Use of Laboratory Animals and approved by IACUC (Institutional Animal Care and Use Committee of China Pharmaceutical University). The authors confirm that experiments involving laboratory animals adhered to the ethical standards of National Institutes of Health Guide and China Pharmaceutical University. The laboratory animals were used under the experimental animal production license 2121922. All animals were housed in a controlled environment (25 °C; 12 h light-dark cycle), with water and food provided freely. 2 × 10^6 SKOV3 cells were subcutaneously injected into the left flank of mice to generate epithelial ovarian cancer xenografts. 2 × 10^11 individual purified phage clones were injected intravenously and circulated for 15 min. After anesthetized with 10 mg/kg […] (5% w/v), the mice were perfused through the heart. Then, the tumor and main organs (liver, lung, kidney, heart and ovary) were harvested, weighed and homogenated. The homogenated tissues were washed, and lysed with 1% NP40. Bound phages were recovered by elution and titrated as described. The distribution of phages was calculated as phages per gram.

SKOV3 xenograft tumor = test: Tumor targeting of FITC conjugated synthetic peptide by fluorescence imaging; type: in vivo, nude mouse; details: 200 μL of 10 mg/mL in PBS i.v., 2 h circulation, liver, lung, kidney, heart, ovary
Protocol: FITC conjugated peptide C7 was chemically synthesized by GL Biochem (Shanghai, China) and purified by high-performance liquid chromatography with more than 95% purity and confirmed by mass spectrometry. The FITC conjugated peptide was evaluated in tumor bearing mice for its tumor targeting capability. The peptide was dissolved in PBS at a concentration of 10 mg/mL and 200 μL was injected intravenously into a tumor bearing nude mouse. After 2 h circulation, tumor and other organ tissues (liver, lung, kidney, heart, and ovary) were harvested and analyzed using Carestream IS4000 fluorescence imaging system.

SKOV3 cells [3] = test: Cell internalization by confocal microscopy, SKOV3 cells; type: cell-based, human; details: FITC conjugated peptide 200 μg/mL, 4 hours at 37 °C
Protocol: To visualize internalization of synthesized peptide C7 into cells, SKOV3 or HepG2 cells were seeded in 24 well plates (10^5 cells/well) containing coverslips and incubated for 24 hours in RPMI 1640 medium with 10% FBS. FITC conjugated peptide C7 or PB-TUP[24] (VHWDFRQWWQPS) (200 μg/mL) was incubated with the cells for 4 hours at 37 °C. After incubation, the cells were washed once with PBS and fixed in 4% paraformaldehyde for 10 min. Cells were then washed three times with PBS and stained with DAPI for 20 min at room temperature. Internalized fluorescent signals were imaged with a Zeiss LSM800 confocal microscope.

[4] = biological target: T1, Native human folate receptor alpha (FRα) on SKOV3 cells (human (endogenous in SKOV3), UniProt P15328 25-234); test: flow cytometry on cells; purified phage clones incubated with SKOV3 cells (1 × 10^6 cells/mL, 2% FCS-PBS) at 4 °C for 1 h; mouse anti-M13 antibody and FITC goat anti-mouse antibody; M13KE as negative control; details: one partner purified
T1 construct: folate receptor alpha, endogenous on the surface of SKOV3 human epithelial ovarian cancer cells; also called natural FRα protein on cell surface; source: endogenous, on SKOV3 cells

[5] = biological target: T2, Recombinant human folate receptor alpha (FRα) (human, UniProt P15328 25-234); test: MST; serial dilutions of FITC conjugated C7 in PBS pH 7.4 mixed with purified FRα protein (1 μg/mL), 5 min at room temperature; Monolith NT.115, standard capillaries; KD from the Hill formula; details: both partners purified
T2 construct: folate receptor alpha, human; also called recombinant folate receptor α; purified FRα protein; source: E. coli system, purified with a Ni-column
T2 sequence (P15328 25-234): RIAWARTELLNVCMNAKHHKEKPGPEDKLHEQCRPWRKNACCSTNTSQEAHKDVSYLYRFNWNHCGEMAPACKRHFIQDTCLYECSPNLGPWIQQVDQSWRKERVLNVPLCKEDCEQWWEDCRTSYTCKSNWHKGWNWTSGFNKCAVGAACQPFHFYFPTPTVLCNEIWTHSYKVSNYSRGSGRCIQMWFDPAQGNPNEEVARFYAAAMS

T1 sequence (P15328 25-234): as above

Molecule	binding to SKOV3 cells in cell-based ELISA (SKOV3 cells [1])	binding to HepG2 cells in cell-based ELISA (HepG2 cells)	specific binding to SKOV3 cells (FITC+ cells) (SKOV3 cells [2])	percent specific binding to SKOV3 cells [4]	further results
MNPYPRTPWPHV [phage clone G12, phage clone displaying Met-Asn-Pro-Tyr-Pro-Arg-Thr-Pro-Trp-Pro-His-Val]	highest binding	relatively low binding	41.8%		
GALLPSMNKGHW [phage clone B8, phage clone displaying Gly-Ala-Leu-Leu-Pro-Ser-Met-Asn-Lys-Gly-His-Trp]	highest binding	relatively low binding			
MHTAPGWGYRLS [phage clone C7, phage clone from Ph.D.-12 library displaying the C7 dodecapeptide]	highest binding	relatively low binding	51.2%		phage enrichment in tumor tissue relative to M13KE phage in tumor (SKOV3 implanted tumor): 49 fold; phage titer in tumor relative to normal ovary (SKOV3 implanted tumor): 190 fold
YTNPYYSSHTRN [phage clone G8, phage clone displaying Tyr-Thr-Asn-Pro-Tyr-Tyr-Ser-Ser-His-Thr-Arg-Asn]	highest binding	relatively low binding	36.0%		
CSCC[C@H](NC(=S)Nc1ccc2c(c1)C(=O)OC21c2ccc(O)cc2Oc2cc(O)ccc21)C(=O)N[C@@H](Cc1c[nH]cn1)C(=O)N[C@H](C(=O)N[C@@H](C)C(=O)N1CCC[C@H]1C(=O)NCC(=O)N[C@@H](Cc1c[nH]c2ccccc12)C(=O)NCC(=O)N[C@@H](Cc1ccc(O)cc1)C(=O)N[C@@H](CCCNC(=N)N)C(=O)N[C@@H](CC(C)C)C(=O)N[C@@H](CO)C(=O)O)[C@@H](C)O [C7, Met-His-Thr-Ala-Pro-Gly-Trp-Gly-Tyr-Arg-Leu-Ser] ({FITC}-MHTAPGWGYRLS-OH; N-terminus and C-terminus assumed)					fluorescence signal in the tumor compared with other organs (SKOV3 xenograft tumor): significantly stronger compared to that in other organs except liver and kidney; internalization into SKOV3 cells (SKOV3 cells [3]): can be internalized
GALLPSMNKGHW (dodecapeptide selected by phage display; printed in three-letter code; source: M13 phage clone from the Ph.D.-12 library, amplified in E. coli ER2738; purified phage for flow cytometry) [Phage clone B8/H1/G4]				31.8%	
MNPYPRTPWPHV (dodecapeptide selected by phage display; printed in three-letter code; source: M13 phage clone from the Ph.D.-12 library, amplified in E. coli ER2738; purified phage for flow cytometry) [Phage clone G12]				41.8%	
MHTAPGWGYRLS (dodecapeptide selected by phage display; printed in three-letter code; the synthetic FITC peptide is m18; also called C7 phage clone; source: M13 phage clone from the Ph.D.-12 library, amplified in E. coli ER2738; purified phage for flow cytometry) [Phage clone C7]				51.2%	
{FITC}-MHTAPGWGYRLS (dodecapeptide of phage clone C7, chemically synthesized; printed in three-letter code; also called C7 peptide; synthesized peptide C7; source: synthetic peptide (GL Biochem, Shanghai; HPLC, more than 95% purity)) [FITC conjugated peptide C7]					Kd [5]: 300 nM
YTNPYYSSHTRN (dodecapeptide selected by phage display; printed in three-letter code; source: M13 phage clone from the Ph.D.-12 library, amplified in E. coli ER2738; purified phage for flow cytometry) [Phage clone G8]				36%	
